According to US9597314B2, “Beta-lactamylalkanoic acids for treating premenstrual disorders” (AZEVAN PHARMACEUTICALS, INC., priority 2005, dated 2017):

Target: V1a (Homo sapiens, UniProt P37288)
Assay: Human vasopression V1a receptor binding assay
Parameters: host or cells: CHO cells (hV1a cell line), whole adherent cells
Details: hV1a cell line (CHO); for IC50: 1 nM 3H-AVP, Table 17, read-out: V1a Binding Affinity (IC50 (nM)); for Ki: Table 18
Method in brief: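 Whole CHO cells stably expressing human V1a receptor competed 1 nM 3H-AVP against 10-fold serial compound dilutions (DMSO) in pH 7.0 Hepes/BSA/DMEM buffer, 45 min at 37° C.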

Chain of V1a (P37288 whole entry): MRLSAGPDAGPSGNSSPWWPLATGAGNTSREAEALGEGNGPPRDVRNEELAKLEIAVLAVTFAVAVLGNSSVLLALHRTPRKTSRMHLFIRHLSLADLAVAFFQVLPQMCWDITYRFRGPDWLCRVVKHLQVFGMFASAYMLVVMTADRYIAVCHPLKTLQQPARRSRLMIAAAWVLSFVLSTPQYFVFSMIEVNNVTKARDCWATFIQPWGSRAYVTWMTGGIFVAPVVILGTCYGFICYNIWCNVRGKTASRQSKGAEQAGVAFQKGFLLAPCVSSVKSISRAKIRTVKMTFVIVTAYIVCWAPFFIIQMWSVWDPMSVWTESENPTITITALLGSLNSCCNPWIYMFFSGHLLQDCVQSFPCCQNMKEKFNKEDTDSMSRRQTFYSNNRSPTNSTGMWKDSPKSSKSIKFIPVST

Molecule | IC50 [nM] | Ki [nM]
O=C(NCc1cccc(C(F)(F)F)c1)C(C(=O)N1CCN(C2CCCCC2)CC1)N1C(=O)[C@@H](N2C(=O)OC[C@@H]2c2ccccc2)[C@H]1/C=C/c1ccccc1 (mixture of isomers) [Example 42] |  | 26.4
O=C(NCc1cccc(C(F)(F)F)c1F)[C@H](CCC(=O)N1CCN(C2CCCCC2)CC1)N1C(=O)[C@@H](N2C(=O)OC[C@@H]2c2ccccc2)[C@H]1/C=C/c1ccccc1 [Example 180] | 0.33 | 
O=C(NCc1cccc(C(F)(F)F)c1)[C@H](CCC(=O)N1CCN(CCN2CCOCC2)CC1)N1C(=O)[C@@H](N2C(=O)OC[C@@H]2c2ccccc2)[C@H]1/C=C/c1ccccc1 [Example 112] |  | 0.8
CC(C)N1CCN(C(=O)C(C(=O)NCc2cccc(C(F)(F)F)c2)N2C(=O)[C@@H](N3C(=O)OC[C@@H]3c3ccccc3)[C@H]2/C=C/c2ccccc2)CC1 (mixture of isomers) [Example 41] |  | 18.2
CC(C)N1CCN(C(=O)CC[C@@H](C(=O)NCc2cccc(C(F)(F)F)c2)N2C(=O)[C@@H](N3C(=O)OC[C@@H]3c3ccccc3)[C@H]2/C(Cl)=C/c2ccccc2)CC1 [Example 230] | 7.07 | 4.33
CC(C)N1CCN(C(=O)CC[C@H](C(=O)NCc2cccc(C(F)(F)F)c2)N2C(=O)[C@@H](N3C(=O)OC[C@@H]3c3ccccc3)[C@H]2/C=C/c2ccccc2)CC1 [Example 138] |  | 13
O=C(NCc1cccc(Cl)c1)[C@H](CCC(=O)N1CCN(C2CCCCC2)CC1)N1C(=O)[C@@H](N2C(=O)OC[C@@H]2c2ccccc2)[C@H]1/C=C/c1ccccc1 [Example 187] | 1 | 
O=C(NCc1cccc([N+](=O)[O-])c1)[C@H](CCC(=O)N1CCN(C2CCCCC2)CC1)N1C(=O)[C@@H](N2C(=O)OC[C@@H]2c2ccccc2)[C@H]1/C=C/c1ccccc1 [Example 189] | 1.7 | 1.04
O=C(NC1CCCc2ccccc21)C(CCC(=O)N1CCN(C2CCCCC2)CC1)N1C(=O)C(N2C(=O)OCC2c2ccccc2)C1C=Cc1ccccc1 (single isomer, unassigned) [Example 214] | 1.86 | 1.14
O=C(NCc1ccc(F)c(Cl)c1)[C@H](CCC(=O)N1CCN(C2CCCCC2)CC1)N1C(=O)[C@@H](N2C(=O)OC[C@@H]2c2ccccc2)[C@H]1/C=C/c1ccccc1 [Example 186] | < 10 | 
COc1cccc([C@H](C)NC(=O)[C@H](CCC(=O)N2CCN(C3CCCCC3)CC2)N2C(=O)[C@@H](N3C(=O)OC[C@@H]3c3ccccc3)[C@H]2/C=C/c2ccccc2)c1 [Example 203] | 2.46 | 1.5
O=C(NCc1cc(C(F)(F)F)cc(C(F)(F)F)c1)[C@H](CCC(=O)N1CCN(C2CCCCC2)CC1)N1C(=O)[C@@H](N2C(=O)OC[C@@H]2c2ccccc2)[C@H]1/C=C/c1ccccc1 [Example 188] | 7.26 | 

Continued, values first:

IC50 [nM] | Ki [nM] | Molecule
83 | 51 | CC(C)(C)OC(=O)N[C@@H]1CCN(C2CCN(C(=O)CC[C@@H](C(=O)NC3(c4ccccc4)CCCC3)N3C(=O)[C@@H](N4C(=O)OC[C@@H]4c4ccccc4)[C@H]3/C=C/c3ccccc3)CC2)C1 [Example 221AX]
9 | 5.5 | (2S)-[(4-cyclohexylpiperazinyl)carbonylethyl]-2-[3(S)-(4(S)-phenyloxazolidin-2-on-3-yl)-4(R)-(2-phenyleth-1-yl)azetidin-2-on-1-yl]acetic acid N—[(R)-1,2,3,4-tetrahydronaphth-1-yl]amide [Example 236A]
1.7 | 1.1 | O=C(NC1Cc2ccccc2C1)[C@H](CCC(=O)N1CCN(C2CCCCC2)CC1)N1C(=O)[C@@H](N2C(=O)OC[C@@H]2c2ccccc2)[C@H]1/C=C/c1ccccc1 [Example 221P]
16.2 | 9.9 | O=C(NCc1cccc(C(F)(F)F)c1)[C@H](CCC(=O)N1CCC(CCN2CCCCC2)CC1)N1C(=O)[C@@H](N2C(=O)OC[C@@H]2c2ccccc2)[C@H]1/C=C/c1ccccc1 [Example 120A]
2.71 | 1.66 | Cc1cccc(CN(C)C(=O)[C@H](CCC(=O)N2CCN(C3CCCCC3)CC2)N2C(=O)[C@@H](N3C(=O)OC[C@@H]3c3ccccc3)[C@H]2/C=C/c2ccccc2)c1 [Example 221A]
